Assay results as given in patent US12209102B2, “Heterocyclic compounds and uses thereof” (Kumquat Biosciences Inc., priority 2022, dated 2025).

Tests used:
[1] = test system: A549 cells; assay: Ras cellular assay, growth of cells with K-Ras G12S mutation (CellTiter-Glo); type: cell-based; conditions: Homo sapiens, cell growth, Example 9, G12S mutation, read-out: IC50 against A549 cells
Method: For example, this assay can be also used to assess a selective growth inhibition of a mutant Ras protein relative to a wildtype, or relative to a different mutant Ras protein.
A549 (ATCC CCL-185) and LS123 (ATCC CCL-255) cell lines comprise a G12S mutation and can be used to assess Ras cellular signaling in vitro, e.g., in response to the compounds herein. A549 culture medium is prepared with RPMI-1640 and 10% heat-inactivated FBS. LS123 culture medium is prepared with RPMI-1640 and 10% heat-inactivated FBS. A CellTiter-Glo (CTG) luminescent based assay (Promega) is used to assess growth of the cells, as a measurement of the ability of the compounds herein to inhibit Ras signaling in the cells. The cells (e.g., 800 per well) are seeded in their respective culture medium in standard tissue culture-treated 384-well format plates (Falcon #08-772-116) or ultra-low attachment surface 384-well format plates (S-Bio #MS-9384WZ). The day after plating, cells are treated with a dilution series (e.g., a 10 point 3-fold dilution series) of the compounds herein (e.g., approximately 40 μL final volume per well). Cell viability can be monitored (e.g., approximately 6 days later) according to the manufacturer's recommended instructions, where the CellTiter-Glo reagent is added (e.g., approximately 10 μL), vigorously mixed, covered, and placed on a plate shaker (e.g., approximately for 20 min) to ensure sufficient cell lysis prior to assessment of luminescent signal. The IC50 values are determined using the four parameter fit. The resulting IC50 value is a measurement of the ability of the compounds herein to reduce cell growth of Ras-driven cells (e.g., tumor cell lines) in vitro and/or in vivo.

[2] = biological target: T1, K-Ras G12S (Homo sapiens, UniProt P01116, G12S); assay: HTRF resonance energy transfer assay, K-Ras G12S / SOS1 interaction; type: biochemical; conditions: HTRF assay of Example 5; read-out: IC50 against K-Ras G12S
T1 construct: made in house; host or cells: E. coli BL21 (DE3)
T1 sequence (P01116 1-188 isoform P01116-2 G12S): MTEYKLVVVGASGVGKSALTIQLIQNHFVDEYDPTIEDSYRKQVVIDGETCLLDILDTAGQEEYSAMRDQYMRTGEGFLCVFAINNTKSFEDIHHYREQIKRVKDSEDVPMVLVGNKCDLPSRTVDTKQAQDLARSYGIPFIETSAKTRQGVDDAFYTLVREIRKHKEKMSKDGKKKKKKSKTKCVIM
Outline: (§1)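 Read-out: HTRF 665/620 nm ratio (excitation 337 nm) after roughly 10 min or longer incubation, used to derive IC50. Donor anti-GST-Eu on GST-K-Ras; acceptor anti-6His-XL665 on His-hSOS1. Duplicate dose series from 10 μM down to 0.01 μM.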

[3] = biological target: T2, K-Ras G12V (Homo sapiens, UniProt P01116, G12V); assay: HTRF resonance energy transfer assay, K-Ras G12V / SOS1 interaction; type: biochemical; conditions: HTRF assay of Example 5; read-out: IC50 against K-Ras G12V
T2 construct: made in house; host or cells: E. coli BL21 (DE3)
T2 sequence (P01116 1-188 isoform P01116-2 G12V): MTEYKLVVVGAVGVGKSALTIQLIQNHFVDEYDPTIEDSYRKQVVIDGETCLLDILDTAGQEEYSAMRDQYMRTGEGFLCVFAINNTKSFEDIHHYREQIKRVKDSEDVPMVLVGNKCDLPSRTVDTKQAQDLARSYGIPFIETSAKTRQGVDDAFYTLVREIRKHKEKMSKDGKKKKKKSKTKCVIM
Outline: as §1

[4] = biological target: T3, K-Ras G12D (Homo sapiens, UniProt P01116, G12D); assay: HTRF resonance energy transfer assay, K-Ras G12D / SOS1 interaction; type: biochemical; conditions: HTRF assay of Example 5; read-out: IC50 against K-Ras G12D
T3 construct: made in house; host or cells: E. coli BL21 (DE3)
T3 sequence (P01116 1-188 isoform P01116-2 G12D): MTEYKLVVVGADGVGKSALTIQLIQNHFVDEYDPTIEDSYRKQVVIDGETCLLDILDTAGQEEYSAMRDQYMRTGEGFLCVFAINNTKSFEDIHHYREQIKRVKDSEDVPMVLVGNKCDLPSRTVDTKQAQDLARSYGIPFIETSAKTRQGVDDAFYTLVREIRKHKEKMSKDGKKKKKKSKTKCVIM
Outline: as §1

[5] = biological target: T4, K-Ras WT (Homo sapiens, UniProt P01116); assay: HTRF resonance energy transfer assay, K-Ras WT / SOS1 interaction; type: biochemical; conditions: HTRF assay of Example 5; read-out: IC50 against K-Ras WT
T4 construct: made in house; host or cells: E. coli BL21 (DE3)
T4 sequence (P01116 1-188 isoform P01116-2): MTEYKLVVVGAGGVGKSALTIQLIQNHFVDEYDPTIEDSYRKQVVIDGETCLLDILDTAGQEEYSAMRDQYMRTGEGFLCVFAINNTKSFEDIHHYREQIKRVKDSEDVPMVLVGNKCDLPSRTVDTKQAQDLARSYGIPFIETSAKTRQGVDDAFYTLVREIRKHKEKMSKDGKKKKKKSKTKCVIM
Outline: as §1

[6] = test system: SW620 cells; assay: Ras cellular assay, growth of cells with K-Ras G12V mutation (CellTiter-Glo); type: cell-based; conditions: Homo sapiens, SW-620; cell growth, Example 9, G12V mutation; read-out: IC50 against SW620 cells
Outline: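 SW620 (K-Ras G12V) cells, e.g. 800/well in RPMI-1640 with 10% heat-inactivated FBS on standard or ultra-low attachment plates, were dosed the day after plating with e.g. a 10-point 3-fold series. Viability by CellTiter-Glo luminescence about 6 days later; IC50 from four-parameter fit.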

SMILES	IC50 [1] [nM]	IC50 [2] [nM]	IC50 [3] [nM]	IC50 [4] [nM]	IC50 [5] [nM]	IC50 [6] [nM]
C[C@H]1COc2c(Cl)c(-c3ccc(F)c4sc(N)c(C#N)c34)c(F)c3nc(OC[C@@]45CCCN4C[C@H](F)C5)nc(c23)N1CC(F)F [Compound 658, 2-amino-4-((5S)-8-chloro-4-(2,2-difluoroethyl)-10-fluoro-2-(((2R,7aS)-2-fluorotetrahydro-1H-pyrrolizin-7a(5H)-yl)methoxy)-5-methyl-5,6-dihydro-4H-[1,4]oxazepino[5,6,7-de]quinazolin-9-yl)-7-fluorobenzo[b]thiophene-3-carbonitrile]	< 5000					
N#Cc1c(N)sc2c(F)ccc(-c3c(Cl)c4c5c(nc(OC[C@@]67CCCN6C[C@H](F)C7)nc5c3F)N(C3CCCCC(O)C3)CCO4)c12 (stereo partly drawn) [Compound 825, 2-amino-4-(8-chloro-10-fluoro-2-(((2R,7aS)-2-fluorotetrahydro-1H-pyrrolizin-7a(5H)-yl)methoxy)-4-(3-hydroxycycloheptyl)-5,6-dihydro-4H-[1,4]oxazepino[5,6,7-de]quinazolin-9-yl)-7-fluorobenzo[b]thiophene-3-carbonitrile]	< 5000					
N#Cc1c(N)sc2c(F)ccc(-c3c(Cl)c4c5c(nc(OC[C@@]67CCCN6C[C@H](F)C7)nc5c3F)N(CC(F)F)CCO4)c12 [Compound 827, 2-amino-4-(8-chloro-4-(2,2-difluoroethyl)-10-fluoro-2-(((2R,7aS)-2-fluorotetrahydro-1H-pyrrolizin-7a(5H)-yl)methoxy)-5,6-dihydro-4H-[1,4]oxazepino[5,6,7-de]quinazolin-9-yl)-7-fluorobenzo[b]thiophene-3-carbonitrile]	< 5000					
N#Cc1c(N)sc2c(F)ccc(-c3c(Cl)c4c5c(nc(OC[C@@]67CCCN6C[C@H](F)C7)nc5c3F)N(C3CCOC3)[C@@H](C(F)F)CO4)c12 (stereo partly drawn) [Compound 855, 2-amino-4-((5R)-8-chloro-5-(difluoromethyl)-10-fluoro-2-(((2R,7aS)-2-fluorotetrahydro-1H-pyrrolizin-7a(5H)-yl)methoxy)-4-(tetrahydrofuran-3-yl)-5,6-dihydro-4H-[1,4]oxazepino[5,6,7-de]quinazolin-9-yl)-7-fluorobenzo[b]thiophene-3-carbonitrile]	< 5000	< 100	< 100			
C[C@H](Oc1nc2c3c(c(Cl)c(-c4ccc(F)c5sc(N)c(C#N)c45)c(F)c3n1)OCCN2[C@@H]1CCN(C(=O)C(F)F)C1)[C@@H]1CCCN1C [Compound 946, 2-amino-4-(8-chloro-4-((R)-1-(2,2-difluoroacetyl)pyrrolidin-3-yl)-10-fluoro-2-((S)-1-((S)-1-methylpyrrolidin-2-yl)ethoxy)-5,6-dihydro-4H-[1,4]oxazepino[5,6,7-de]quinazolin-9-yl)-7-fluorobenzo[b]thiophene-3-carbonitrile]	< 5000	< 100	< 100	< 100	< 100	
N#Cc1c(N)sc2c(F)ccc(-c3c(Cl)c4c5c(nc(OC[C@@]67CCCN6C[C@H](F)C7)nc5c3F)N(C3C5CNC3C5)CCO4)c12 (stereo partly drawn) [Compound 991, 4-(4-(2-azabicyclo[2.1.1]hexan-5-yl)-8-chloro-10-fluoro-2-(((2R,7aS)-2-fluorotetrahydro-1H-pyrrolizin-7a(5H)-yl)methoxy)-5,6-dihydro-4H-[1,4]oxazepino[5,6,7-de]quinazolin-9-yl)-2-amino-7-fluorobenzo[b]thiophene-3-carbonitrile]	< 5000	< 100	< 100	< 100	< 100	
N#Cc1c(N)sc2c(F)ccc(-c3c(Cl)c4c5c(nc(OC[C@@]67CCCN6C[C@H](F)C7)nc5c3F)NCCO4)c12 [Compound 1087, 2-amino-4-(8-chloro-10-fluoro-2-(((2R,7aS)-2-fluorotetrahydro-1H-pyrrolizin-7a(5H)-yl)methoxy)-5,6-dihydro-4H-[1,4]oxazepino[5,6,7-de]quinazolin-9-yl)-7-fluorobenzo[b]thiophene-3-carbonitrile]	< 5000	< 100	< 100	< 100	< 100	
N#Cc1c(N)sc2c(F)ccc(-c3c(Cl)c4c5c(nc(OC[C@@]67CCCN6C[C@H](F)C7)nc5c3F)N(C3CC35CCN(C=O)C5)CCO4)c12 (stereo partly drawn) [Compound 1091, 2-amino-4-(8-chloro-10-fluoro-2-(((2R,7aS)-2-fluorotetrahydro-1H-pyrrolizin-7a(5H)-yl)methoxy)-4-(5-formyl-5-azaspiro[2.4]heptan-1-yl)-5,6-dihydro-4H-[1,4]oxazepino[5,6,7-de]quinazolin-9-yl)-7-fluorobenzo[b]thiophene-3-carbonitrile]	< 5000	< 100	< 100	< 100	< 100	
N#Cc1c(N)sc2c(F)ccc(-c3c(Cl)c4c5c(nc(OC[C@@]67CCCN6C[C@H](F)C7)nc5c3F)N(C3COC5(CNC5)C3)CCO4)c12 (stereo partly drawn) [Compound 1093, 2-amino-4-(8-chloro-10-fluoro-2-(((2R,7aS)-2-fluorotetrahydro-1H-pyrrolizin-7a(5H)-yl)methoxy)-4-(5-oxa-2-azaspiro[3.4]octan-7-yl)-5,6-dihydro-4H-[1,4]oxazepino[5,6,7-de]quinazolin-9-yl)-7-fluorobenzo[b]thiophene-3-carbonitrile]	< 5000	< 100	< 100	< 100	< 100	
N#Cc1c(N)sc2c(F)ccc(-c3c(Cl)c4c5c(nc(OC[C@@]67CCCN6C[C@H](F)C7)nc5c3F)N(C3CC5(CCNC5)C3)CCO4)c12 (stereo partly drawn) [Compound 1112, 2-amino-4-(8-chloro-10-fluoro-2-(((2R,7aS)-2-fluorotetrahydro-1H-pyrrolizin-7a(5H)-yl)methoxy)-4-(6-azaspiro[3.4]octan-2-yl)-5,6-dihydro-4H-[1,4]oxazepino[5,6,7-de]quinazolin-9-yl)-7-fluorobenzo[b]thiophene-3-carbonitrile]	< 5000	< 100	< 100	< 100	< 100	
CN1c2nc(OC[C@@]34CCCN3C[C@H](F)C4)nc3c(F)c(-c4ccc(F)c5sc(N)c(C#N)c45)c(Cl)c(c23)OCC[C@H]1C1CC1 [Compound 1209, 2-amino-4-((5S)-9-chloro-5-cyclopropyl-11-fluoro-2-(((2R,7aS)-2-fluorotetrahydro-1H-pyrrolizin-7a(5H)-yl)methoxy)-4-methyl-4,5,6,7-tetrahydro-[1,5]oxazocino[4,3,2-de]quinazolin-10-yl)-7-fluorobenzo[b]thiophene-3-carbonitrile]		< 100	< 100	< 100	< 100	< 5000
CN1c2nc(OC[C@@]34CCCN3C[C@H](F)C4)nc3c(F)c(-c4ccc(F)c5sc(N)c(C#N)c45)c(Cl)c(c23)OCCC1CO (stereo partly drawn) [Compound 1217, 2-amino-4-(9-chloro-11-fluoro-2-(((2R,7aS)-2-fluorotetrahydro-1H-pyrrolizin-7a(5H)-yl)methoxy)-5-(hydroxymethyl)-4-methyl-4,5,6,7-tetrahydro-[1,5]oxazocino[4,3,2-de]quinazolin-10-yl)-7-fluorobenzo[b]thiophene-3-carbonitrile]		< 100	< 100	< 100	< 100	< 5000
